In patent US20250345391A1, “COMPOSITIONS AND METHODS FOR THE TREATMENT OF SEPSIS” (Children's Hospital Medical Center, priority 2022, published 2025):

Tested on: TNFα, IL-1β, IL-6, IL-10, KC, MIP-1α
Assay: Plasma levels of cytokines after CLP sepsis (multiplex array)
Format: in vivo, Male C57BL/6 mice
Details: 6 h after CLP, vs vehicle
Text: The investigation conformed to the National Institutes of Health Guide for the Care and Use of Laboratory Animals (Eighth Edition, 2011) and was approved by the Institutional Animal Care and Use Committee of the Cincinnati Children's Hospital Medical Center. Male C57BL/6 mice were obtained from Charles River Laboratories International, Inc. (Wilmington, MA). Mice were used at 3-5 months of age to mimic the equivalent for human ranges from 20-25 years (29). Male mice only were chosen for the experimentation to avoid interference from female hormonal fluctuations in sepsis responses during the estrous cycle. Mice were housed in pathogen-free conditions under a 10-h light/14-h dark cycle with free access to food and water. Mice were anesthetized with 2.0% isoflurane in 50% oxygen and polymicrobial sepsis was induced by cecal ligation and puncture (CLP) (30). After a midline laparotomy, the cecum was exteriorized, ligated and punctured twice with a 23-G needle. The cecum was then returned into the peritoneal cavity and the abdominal incision was closed. After the procedure, mice were randomly assigned to three treatment groups: a vehicle-treated group received distilled water (200 μl/mouse) intraperitoneally (i.p.); a 100 μg colivelin-treated group received the colivelin at 100 μg/kg i.p., and a 200 μg colivelin-treated group received the colivelin at 200 μg/kg i.p. at 1 h after CLP. The intraperitoneal injection was chosen to allow for a rapid uptake and bioavailability of the peptide. All groups of mice also received fluid resuscitation (35 ml/kg normal saline solution subcutaneously) immediately after, at 3 h and 12 h after the CLP procedure. To minimize pain at the surgical incision site, lidocaine hydrochloride (1%, 4 mg/kg total dose) was applied locally immediately after the procedure. […] Mice were then sacrificed at 0, 6 and 18 h after CLP. Blood, lungs, kidneys, liver, and thoracic aortas were collected for biochemical assays. Plasma levels of tumor necrosis factor-α (TNFα), interleukin (IL)-1β, IL-6, IL-10, keratinocytes-derived chemokine (KC), and macrophage inflammatory proteins (MIP-1α) were used as indices of the systemic inflammatory response and were evaluated by a commercially available multiplex array system (Milliplex, Millipore Corporation, Billerica, MA). Plasma levels of endoglin, intercellular adhesion molecule-1 (ICAM-1), P-selectin, proprotein convertase subtilisin/kexin type 9 (PCSK9), and angiopoietin-2 (Ang 2) were used as indices of endothelial injury and were evaluated by a commercially available multiplex array system (R&D Systems, Minneapolis, MN). Plasma levels of syndecan-1 were used as indices of glycocalyx damage and were evaluated by a mouse syndecan-1 sandwich-type enzyme-linked immunosorbent assay (ELISA) kit (Boster Biological Technology Co., California, US). Assays were performed using the protocols recommended by the manufacturer.

[1] = colivelin 100 or 200 μg/kg i.p. at 1 h after CLP, dose-independent
[2] = colivelin 100 or 200 μg/kg i.p., trend towards reduction

## Colivelin (SALLRSIPAPAGASRLLLLTGEIDLP)
[1]
  Plasma levels of IL-10: significantly decreased
  Plasma levels of MIP-1α: significantly decreased
  Plasma levels of TNF-α: significantly decreased
[2]
  Plasma levels of IL-1β: not statistically different
  Plasma levels of IL-6: not statistically different
Colivelin at 200 μg/kg i.p. at 1 h after CLP
  Plasma levels of KC: significantly reduced
